Laboratory results as given in patent US20150152441A1, “METHODS AND SYSTEMS FOR IMPROVING FERMENTATION EFFICIENCY” (LanzaTech New Zealand Limited, priority 2013, published 2015).

Columns and labels:
[1] = test system: Clostridium autoethanogenum culture; test: Determination of effect of BTEX on fermentation (continuous CO gas fermentation; impact seen as rising pH and/or effect on CO and H2 uptake); format: cell-based; conditions: for Liquid tolerance level / Liquid impact level (ppm): level in fermentation broth, compound added individually; for Liquid tolerance level: addition lowered until no effect was observed; for Liquid impact level (ppm): impact = rising pH and/or effect on CO and H2 uptake
Description: Media was prepared according to the composition described in Tables 1-3 to a volume of 1.5 L and 1.5 ml of resazurin added. The solution was heated and agitated whilst degassed with N2. A Na2S drip was started at a rate of 0.5 ml/hr and temperature of the bioreactor set to 37° C. The pH was adjusted to 5.0 with NH4OH and chromium was added to adjust the ORP to −200 mV. The bioreactor was then supplied with RMG (43% CO, 20% CO2, 2.5% H2 and 33% N2) at a flow rate of 50 ml/min. The solution was inoculated with 150 ml of an actively growing Clostridium autoethanogenum culture. The fermentation was operated continuously for a period of 41 days at dilution rate 1.5. At day 26.8, Toluene was added to the gas phase. To achieve this, the inflow gas was sparged through a toluene solution, which allowed toluene to accumulate in the reactor. Toluene was allowed to accumulate for 17 hours. The fermentation was allowed to recover and the experiment was repeated on day 27.8.
The reactor was allowed to recover. On day 35 Benzene was added to the gas phase. To achieve this, the inflow gas was sparged through a benzene solution, which allowed benzene to accumulate in the reactor. […] Benzene was allowed to accumulate to higher concentrations.
The effect of the addition of xylene and ethylbenzene were also performed using the same techniques. Based on vapour pressure the compounds would evaporate at a certain rate into gaseous phase.
The effect of the introduction of the various BTEX compounds on bacterial culture performance was determined by measurement of the following: culture density, metabolite concentration (ethanol, acetate, etc), oxidation-reduction potential, pH, carbon monoxide and hydrogen consumption. The compound accumulation in the gas and culture liquid phase was determined by GC-MS measurements.
Liquid tolerance levels were determined by lowering the addition until no effect was observed.

[2] = cited from earlier work

Molecule	level in broth at which the compound began to effect the fermentation ([1]; FIG. 5-7) [ppm]	accumulation resulting in an increase in pH and decrease in CO uptake ([1]; FIG. 6, 7)	accumulation level with no observable effect on the fermentation ([1]; benzene added to gas phase on day 35) [ppm]	Liquid tolerance level [1] [ppm]	Liquid impact level (ppm) [1] [ppm]	mm Hg vapor pressure (25° C.) [2] [mm Hg]	effect of addition to the reactor on the fermentation [1]	level in fermentation broth at which CO uptake decreased, with rising pH trend ([1]; after 3.5 hours exposure, FIG. 2-4)	level in broth below which CO uptake and pH returned to pre-addition levels (fermentation recovers) ([1]; after toluene addition was stopped)	effect on carbon monoxide utilisation of the microorganism ([1]; excess levels in fermentation solution)
c1ccccc1 [Benzene]	≥ 50	greater than 50 ppm	≤ 40	<40	>40	76	–	–	–	–
CCc1ccccc1 [Ethyl Benzene]	–	–	–	<10	>20	7	same effect was also seen	–	–	–
Cc1ccccc1 [Toluene]	–	–	–	<25	>50	22	–	greater than 100 ppm	below 100 ppm	clear negative effect
c1ccc2ccccc2c1 [naphthalene]	–	–	–	–	–	–	does not have a negative effect on the fermentation	–	–	–
Xylenes	–	–	–	<10	>100	–	same effect was also seen	–	–	–
